What was measured:
Details in all cases: 72 h
Calu-3 [1] = assay: cell viability relative to DMSO; higher = less toxic
Caco-2 [2] = assay: as above
HepG2 [3] = assay: as above
Vero E6 [4] = assay: as above
U2OS [5] = assay: as above
Calu-3 [6] = assay: relative viability EC50 (midpoint between 100% and the lowest measured viability); higher = less toxic
Caco-2 [7] = assay: as above
HepG2 [8] = assay: as above
Vero E6 [9] = assay: as above
U2OS [10] = assay: as above
Calu-3 [11] = assay: drug sensitivity score (DSS) for viability; higher = more toxic; extreme values may be limits of the assay
Caco-2 [12] = assay: as above
HepG2 [13] = assay: as above
Vero E6 [14] = assay: as above
U2OS [15] = assay: as above

SMILES | cell viability (Calu-3 [1]; 1 nM) | cell viability (Calu-3 [1]; 10 nM) | cell viability (Calu-3 [1]; 100 nM) | cell viability (Calu-3 [1]; 1000 nM) | cell viability (Calu-3 [1]; 10000 nM) | cell viability (Caco-2 [2]; 1 nM) | cell viability (Caco-2 [2]; 10 nM) | cell viability (Caco-2 [2]; 100 nM) | cell viability (Caco-2 [2]; 1000 nM) | cell viability (Caco-2 [2]; 10000 nM) | cell viability (HepG2 [3]; 1 nM) | cell viability (HepG2 [3]; 10 nM) | cell viability (HepG2 [3]; 100 nM) | cell viability (HepG2 [3]; 1000 nM) | cell viability (HepG2 [3]; 10000 nM) | cell viability (Vero E6 [4]; 1 nM) | cell viability (Vero E6 [4]; 10 nM) | cell viability (Vero E6 [4]; 100 nM) | cell viability (Vero E6 [4]; 1000 nM) | cell viability (Vero E6 [4]; 10000 nM) | cell viability (U2OS [5]; 1 nM) | cell viability (U2OS [5]; 10 nM) | cell viability (U2OS [5]; 100 nM) | cell viability (U2OS [5]; 1000 nM) | cell viability (U2OS [5]; 10000 nM) | relative viability EC50 (Calu-3 [6]) | relative viability EC50 (Caco-2 [7]) | relative viability EC50 (HepG2 [8]) | relative viability EC50 (Vero E6 [9]) | relative viability EC50 (U2OS [10]) | drug sensitivity score (Calu-3 [11]) | drug sensitivity score (Caco-2 [12]) | drug sensitivity score (HepG2 [13]) | drug sensitivity score (Vero E6 [14]) | drug sensitivity score (U2OS [15])
CC(=O)OCC(=O)[C@H]1CC[C@H]2[C@@H]3CC[C@H]4C[C@H](O)CC[C@]4(C)[C@H]3C(=O)C[C@]12C [alfadolone-acetate] | 99.9% | 101% | 99.8% | 111% | 91.3% | 99.9% | 102% | 102% | 101% | 100% | 98.7% | 101% | 109% | 104% | 102% | 106% | 104% | 98.3% | 104% | 97.3% | 105% | 97.7% | 98.7% | 103% | 100% | > 10 µM | > 10 µM | > 10 µM | > 10 µM | > 10 µM | 0 | 0 | 0 | 0 | 0
O=C(NC(O)C(Cl)(Cl)Cl)NC(O)C(Cl)(Cl)Cl (stereo not given) [dicloralurea] | 94.1% | 96.2% | 102% | 86.9% | 99.5% | 96.6% | 114% | 111% | 102% | 90.1% | 96.2% | 107% | 109% | 104% | 97.4% | 97.6% | 101% | 95.2% | 92.4% | 103% | 97% | 92.4% | 97.6% | 94.4% | 103% | > 10 µM | > 10 µM | > 10 µM | > 10 µM | > 10 µM | 0 | 0 | 0 | 0 | 0
CCCCOc1ccc(CC(=O)NO)cc1 [bufexamac] | 95.8% | 91.2% | 104% | 98.2% | 99.3% | 91.6% | 89.5% | 96.7% | 90.6% | 92.8% | 95% | 94.6% | 87.5% | 99.9% | 98.2% | 81.9% | 103% | 89.2% | 96.1% | 85.1% | 100% | 97.8% | 98.1% | 96% | 99% | > 10 µM | > 10 µM | > 10 µM | > 10 µM | > 10 µM | 0 | 0 | 0 | 0.1 | 0
Cn1c(=O)c2c(ncn2CC(=O)O)n(C)c1=O [acefylline] | 104% | 101% | 114% | 93.8% | 102% | 102% | 98% | 114% | 110% | 105% | 93% | 98.8% | 102% | 95.1% | 108% | 104% | 105% | 107% | 105% | 86.5% | 98.7% | 97% | 96.8% | 95.5% | 97.8% | > 10 µM | > 10 µM | > 10 µM | > 10 µM | > 10 µM | 0 | 0 | 0 | 0.1 | 0
CC(=O)Oc1cc2c(s1)CCN(C(C(=O)C1CC1)c1ccccc1F)C2 (stereo not given) [prasugrel] | 101% | 103% | 102% | 97.3% | 106% | 102% | 101% | 93% | 105% | 94.1% | 105% | 95% | 106% | 103% | 93.3% | 100% | 93.6% | 96.2% | 96.2% | 93.2% | 104% | 98% | 102% | 97.9% | 98.8% | > 10 µM | > 10 µM | > 10 µM | > 10 µM | > 10 µM | 0 | 0 | 0 | 0 | 0
C#CCN1C(C)=C(C(=O)OC)C(c2cccc([N+](=O)[O-])c2)C(C(=O)OCC)=C1C (stereo not given) [MRS-1845] | 99.5% | 91.3% | 95.6% | 98.3% | 90.6% | 92% | 98.1% | 96.9% | 88.6% | 85.4% | 95.2% | 105% | 91.3% | 106% | 95.7% | 94.1% | 99.6% | 98% | 99.3% | 99% | 107% | 97.8% | 105% | 100% | 97.2% | > 10 µM | > 10 µM | > 10 µM | > 10 µM | > 10 µM | 0 | 0.3 | 0 | 0 | 0

From the supplement of paper PMC13380429
